# Measured values as given in patent publication US6479435B1, “Diaryl ethers and processes for their preparation and herbicidal and desiccant compositions containing them” (ISK Americas Incorporated, priority 1997, dated 2002).
# Legend:
# Format in all cases: in vivo
# [1] = tested on: soybean (Glycine max L., var. Pella 86, SOY); experiment: Pre-emerge greenhouse test, crop damage rating; design: key to SOY crop damage rating: 0 = no damage, 100 = complete death of all plants; settings: 14 days after application, rating scale 0-100
# How it was run: (§1)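 Seeds sown in sandy loam one day before track-sprayer application of acetone solutions at 125–1000 g ai/ha (187 l/ha), then surface-watered to incorporate and bottom-watered. Injury scored visually at 14 days on a 0–100 scale (0 no damage, 100 complete death).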
# [2] = tested on: ivyleaf morningglory (Ipomoea hederacea, IPOHE); experiment: Post-emerge greenhouse herbicide test, phytotoxicity rating; settings: 14 days after application, scale 0-100
# How it was run: (§2)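 Plants at the 2-3 leaf stage, sown 8-21 days earlier, were track-sprayed post-emergence with compound in acetone plus 0.25% v/v non-ionic surfactant at 63-1000 g ai/ha (187 l/ha). Damage was rated at 14 days on a 0-100 scale (0 none, 100 all plants dead), for both crop injury and weed control.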
# [3] = tested on: lambsquarters (Chenopodium album, CHEAL); experiment: as above; settings: 14 days after application, scale 0-100
# How it was run: as §2
# [4] = tested on: redroot pigweed (Amaranthus retroflexus, AMARE); experiment: as above; settings: 14 days after application, scale 0-100
# How it was run: as §2
# [5] = tested on: sicklepod (Cassia obtusifolia, CASOB); experiment: as above; settings: 14 days after application, scale 0-100
# How it was run: as §2
# [6] = tested on: Johnsongrass (Sorghum halepense, SORHA); experiment: as above; settings: 14 days after application, scale 0-100
# How it was run: as §2
# [7] = tested on: large crabgrass (Digitaria sanguinalis, DIGSA); experiment: as above; settings: 14 days after application, scale 0-100
# How it was run: as §2
# [8] = tested on: green foxtail (Setaria viridis, SETVI); experiment: as above; settings: 14 days after application, scale 0-100
# How it was run: as §2
# [9] = tested on: velvetleaf (Abutilon theophrasti, ABUTH); experiment: as above; settings: 14 days after application, scale 0-100
# How it was run: as §2
# [10] = tested on: barnyardgrass (Echinochloa crusgalli, ECHCG); experiment: as above; settings: 14 days after application, scale 0-100
# How it was run: as §2
# [11] = tested on: ivyleaf morningglory (Ipomoea hederacea, IPOHE); experiment: Pre-emerge greenhouse herbicide test, phytotoxicity rating; settings: 14 days after application, rating scale 0-100
# How it was run: as §1
# [12] = tested on: lambsquarters (Chenopodium album, CHEAL); experiment: as above; settings: 14 days after application, rating scale 0-100
# How it was run: as §1
# [13] = tested on: redroot pigweed (Amaranthus retroflexus, AMARE); experiment: as above; settings: 14 days after application, rating scale 0-100
# How it was run: as §1
# [14] = tested on: sicklepod (Cassia obtusifolia, CASOB); experiment: as above; settings: 14 days after application, rating scale 0-100
# How it was run: as §1
# [15] = tested on: Johnsongrass (Sorghum halepense, SORHA); experiment: as above; settings: 14 days after application, rating scale 0-100
# How it was run: as §1
# [16] = tested on: large crabgrass (Digitaria sanguinalis, DIGSA); experiment: as above; settings: 14 days after application, rating scale 0-100
# How it was run: as §1
# [17] = tested on: green foxtail (Setaria viridis, SETVI); experiment: as above; settings: 14 days after application, rating scale 0-100
# How it was run: as §1
# [18] = tested on: velvetleaf (Abutilon theophrasti, ABUTH); experiment: as above; settings: 14 days after application, rating scale 0-100
# How it was run: as §1
# [19] = tested on: barnyardgrass (Echinochloa crusgalli, ECHCG); experiment: as above; settings: 14 days after application, rating scale 0-100
# How it was run: as §1
# [20] = tested on: soybean (Glycine max L., var. Pella 86, SOY); experiment: Post-emerge greenhouse test, crop damage rating; design: key to crop damage rating SOY: 0-100 scale: 0 = no damage, 100 = complete death of all plants; settings: 14 days after application, scale 0-100
# How it was run: as §2
# [21] = tested on: field corn (Zea mays L., var. Dekalb 535, CORN); experiment: Post-emerge greenhouse test, crop damage rating; settings: 14 days after application, scale 0-100
# How it was run: as §2
# [22] = tested on: upland rice (Oryza sp., var.Tebonnet, RICE); experiment: Post-emerge greenhouse test, crop damage rating; settings: 14 days after application, scale 0-100
# How it was run: as §2
# [23] = tested on: field corn (Zea mays L., var. Dekalb 535, CORN); experiment: Pre-emerge greenhouse test, crop damage rating; settings: 14 days after application, rating scale 0-100
# How it was run: as §1
# [24] = tested on: upland rice (Oryza sp., var.Tebonnet, RICE); experiment: Pre-emerge greenhouse test, crop damage rating; settings: 14 days after application, rating scale 0-100
# How it was run: as §1
# [25] = tested on: common ragweed (Ambrosia artemisiifolia L., AMBEL); experiment: Post-emerge greenhouse herbicide test, phytotoxicity rating; settings: 14 days after application, scale 0-100
# Text: A standard greenhouse herbicide activity screening system was used to evaluate the herbicidal efficacy and crop safety of these test compounds. Six broadleaf weed species including redroot pigweed (Amaranthus retroflexus, AMARE), velvetleaf (Abutilon theophrasti, ABUTH), sicklepod (Cassia obtusifolia, CASOB), ivyleaf morningglory (Ipomoea hederacea, IPOHE), lambsquarters (Chenopodium album, CHEAL) and common ragweed (Ambrosia artemisiifolia L., AMBEL) were used as test species. Four grass weed species including green foxtail (Setaria viridis, SETVI), barnyardgrass (Echinochloa crusgalli, ECHCG), Johnsongrass (Sorghum halepense, SORHA), and large crabgrass (Digitaria sanguinalis, DIGSA) were also used. In addition, three crop species, field corn (Zea mays L., var. Dekalb 535, CORN), soybean (Glycine max L., var. Pella 86, SOY), and upland rice (Oryza sp., var.Tebonnet, RICE) were included.
# All test compounds were dissolved in acetone and applied to the test units in a volume of 187 l/ha. […] Plants were arranged on a shelf so that the top of the canopy (post-emerge) or top of the soil surface (pre-emerge) was 40-45 cm below the nozzle. Pressurized air was used to force the test solution through the nozzle as it was mechanically advanced (via electrically driven chain drive) over the top of all test plants/pots. This application simulates a typical commercial field herbicide application.
# In the post-emerge test, a commercial non-ionic surfactant was also included (0.25% v/v) to enhance wetting of the leaf surfaces Qf target plants at rates ranging from 63 g ai/ha to 1000 g ai/ha. For post-emerge tests, seeds were planted 8-21 days prior to the test to allow emergence and good foliage development prior to application of the test substances. At the time of the post-emerge application, plants of all species were usually at the 2-3 leaf stage of development. Post-emerge test units were always bottom-watered.
# At 14 days after application of the test materials, phytotoxicity ratings were recorded. A rating scale of 0-100 was used as previously described in Research Methods in Weed Science, 2nd edition, B. Truelove, Ed., Southern Weed Science Society, Auburn University, Auburn, Ala., 1977. Briefly, “0” corresponds to no damage and “100” corresponds to complete death of all plants in the test unit. This scale was used both to determine efficacy against weed species and damage to crop species. Herbicide activity data for various compounds of this invention, which are shown by compound number in Tables 1-9, are shown in Tables 13 and 14.
structure (smiles),measurement,setting,value
CSc1cccnc1Oc1cc(-n2c(=O)n3n(c2=S)CCCC3)c(F)cc1Cl [Compound 8-43],SOY crop damage rating,[1]; Rate 125 g al/ha,0
same,SOY crop damage rating,[1]; Rate 250 g al/ha,0
same,phytotoxicity rating IPOHE,[2]; rate 63 g ai/ha,100
same,phytotoxicity rating IPOHE,[2]; rate 250 g ai/ha,100
same,phytotoxicity rating CHEAL,[3]; rate 63 g ai/ha,90
same,phytotoxicity rating CHEAL,[3]; rate 250 g ai/ha,100
same,phytotoxicity rating AMARE,[4]; rate 63 g ai/ha,60
same,phytotoxicity rating AMARE,[4]; rate 250 g ai/ha,90
same,phytotoxicity rating CASOB,[5]; rate 63 g ai/ha,95
same,phytotoxicity rating CASOB,[5]; rate 250 g ai/ha,100
same,phytotoxicity rating SORHA,[6]; rate 63 g ai/ha,20
same,phytotoxicity rating SORHA,[6]; rate 250 g ai/ha,30
same,phytotoxicity rating DIGSA,[7]; rate 63 g ai/ha,0
same,phytotoxicity rating DIGSA,[7]; rate 250 g ai/ha,20
same,phytotoxicity rating SETVI,[8]; rate 63 g ai/ha,40
same,phytotoxicity rating SETVI,[8]; rate 250 g ai/ha,60
same,phytotoxicity rating ABUTH,[9]; rate 63 g ai/ha,100
same,phytotoxicity rating ABUTH,[9]; rate 250 g ai/ha,100
same,phytotoxicity rating ECHCG,[10]; rate 63 g ai/ha,20
same,phytotoxicity rating ECHCG,[10]; rate 250 g ai/ha,30
same,IPOHE phytotoxicity rating,[11]; Rate 125 g al/ha,0
same,IPOHE phytotoxicity rating,[11]; Rate 250 g al/ha,20
same,CHEAL phytotoxicity rating,[12]; Rate 125 g al/ha,100
same,CHEAL phytotoxicity rating,[12]; Rate 250 g al/ha,100
same,AMARE phytotoxicity rating,[13]; Rate 125 g al/ha,20
same,AMARE phytotoxicity rating,[13]; Rate 250 g al/ha,70
same,CASOB phytotoxicity rating,[14]; Rate 125 g al/ha,20
same,CASOB phytotoxicity rating,[14]; Rate 250 g al/ha,30
same,SORHA phytotoxicity rating,[15]; Rate 125 g al/ha,0
same,SORHA phytotoxicity rating,[15]; Rate 250 g al/ha,0
same,DIGSA phytotoxicity rating,[16]; Rate 125 g al/ha,90
same,DIGSA phytotoxicity rating,[16]; Rate 250 g al/ha,100
same,SETVI phytotoxicity rating,[17]; Rate 125 g al/ha,100
same,SETVI phytotoxicity rating,[17]; Rate 250 g al/ha,100
same,ABUTH phytotoxicity rating,[18]; Rate 125 g al/ha,10
same,ABUTH phytotoxicity rating,[18]; Rate 250 g al/ha,30
same,ECHCG phytotoxicity rating,[19]; Rate 125 g al/ha,0
same,ECHCG phytotoxicity rating,[19]; Rate 250 g al/ha,0
same,crop damage rating SOY,[20]; rate 63 g ai/ha,80
same,crop damage rating SOY,[20]; rate 250 g ai/ha,100
same,crop damage rating CORN,[21]; rate 63 g ai/ha,20
same,crop damage rating CORN,[21]; rate 250 g ai/ha,30
same,crop damage rating RICE,[22]; rate 63 g ai/ha,10
same,crop damage rating RICE,[22]; rate 250 g ai/ha,30
same,CORN crop damage rating,[23]; Rate 125 g al/ha,0
same,CORN crop damage rating,[23]; Rate 250 g al/ha,0
same,RICE crop damage rating,[24]; Rate 125 g al/ha,20
same,RICE crop damage rating,[24]; Rate 250 g al/ha,20
same,phytotoxicity rating AMBEL,[25]; rate 63 g ai/ha,100
same,phytotoxicity rating AMBEL,[25]; rate 250 g ai/ha,100
CCOC(=O)C(C)Oc1ccc(Oc2cc(-n3c(=O)n4n(c3=S)CCCC4)c(F)cc2Cl)c([N+](=O)[O-])c1 (stereo not drawn) [Compound 8-39],SOY crop damage rating,[1]; Rate 125 g al/ha,0
same,SOY crop damage rating,[1]; Rate 250 g al/ha,0
same,phytotoxicity rating IPOHE,[2]; rate 63 g ai/ha,100
same,phytotoxicity rating IPOHE,[2]; rate 230 g ai/ha,90
same,phytotoxicity rating CHEAL,[3]; rate 63 g ai/ha,50
same,phytotoxicity rating CHEAL,[3]; rate 230 g ai/ha,70
same,phytotoxicity rating AMARE,[4]; rate 63 g ai/ha,70
same,phytotoxicity rating AMARE,[4]; rate 230 g ai/ha,80
same,phytotoxicity rating CASOB,[5]; rate 63 g ai/ha,100
same,phytotoxicity rating CASOB,[5]; rate 230 g ai/ha,30
same,phytotoxicity rating SORHA,[6]; rate 63 g ai/ha,0
same,phytotoxicity rating SORHA,[6]; rate 230 g ai/ha,10
same,phytotoxicity rating DIGSA,[7]; rate 63 g ai/ha,0
same,phytotoxicity rating DIGSA,[7]; rate 230 g ai/ha,10
same,phytotoxicity rating SETVI,[8]; rate 63 g ai/ha,10
same,phytotoxicity rating SETVI,[8]; rate 230 g ai/ha,10
same,phytotoxicity rating ABUTH,[9]; rate 63 g ai/ha,100
same,phytotoxicity rating ABUTH,[9]; rate 230 g ai/ha,100
same,phytotoxicity rating ECHCG,[10]; rate 63 g ai/ha,0
same,phytotoxicity rating ECHCG,[10]; rate 230 g ai/ha,30
same,IPOHE phytotoxicity rating,[11]; Rate 125 g al/ha,0
same,IPOHE phytotoxicity rating,[11]; Rate 250 g al/ha,0
same,CHEAL phytotoxicity rating,[12]; Rate 125 g al/ha,99
same,CHEAL phytotoxicity rating,[12]; Rate 250 g al/ha,100
same,AMARE phytotoxicity rating,[13]; Rate 125 g al/ha,100
same,AMARE phytotoxicity rating,[13]; Rate 250 g al/ha,100
same,CASOB phytotoxicity rating,[14]; Rate 125 g al/ha,95
same,CASOB phytotoxicity rating,[14]; Rate 250 g al/ha,0
same,SORHA phytotoxicity rating,[15]; Rate 125 g al/ha,0
same,SORHA phytotoxicity rating,[15]; Rate 250 g al/ha,0
same,DIGSA phytotoxicity rating,[16]; Rate 125 g al/ha,0
same,DIGSA phytotoxicity rating,[16]; Rate 250 g al/ha,0
same,SETVI phytotoxicity rating,[17]; Rate 125 g al/ha,0
same,SETVI phytotoxicity rating,[17]; Rate 250 g al/ha,40
same,ABUTH phytotoxicity rating,[18]; Rate 125 g al/ha,20
same,ABUTH phytotoxicity rating,[18]; Rate 250 g al/ha,100
same,ECHCG phytotoxicity rating,[19]; Rate 125 g al/ha,0
same,ECHCG phytotoxicity rating,[19]; Rate 250 g al/ha,0
same,crop damage rating SOY,[20]; rate 63 g ai/ha,60
same,crop damage rating SOY,[20]; rate 230 g ai/ha,80
same,crop damage rating CORN,[21]; rate 63 g ai/ha,15
same,crop damage rating CORN,[21]; rate 230 g ai/ha,10
same,crop damage rating RICE,[22]; rate 63 g ai/ha,15
same,crop damage rating RICE,[22]; rate 230 g ai/ha,15
same,CORN crop damage rating,[23]; Rate 125 g al/ha,0
same,CORN crop damage rating,[23]; Rate 250 g al/ha,0
same,RICE crop damage rating,[24]; Rate 250 g al/ha,20
same,phytotoxicity rating AMBEL,[25]; rate 63 g ai/ha,60
same,phytotoxicity rating AMBEL,[25]; rate 230 g ai/ha,80
